In brackets after ≈: the same amount, converted by molar mass. Where two headings read alike, the source gives them in different places.
Legend:
galactosemic cataract = assay: Galactosemic cataract in rats; assay type: in vivo, weaning male EOPS Wistar rats; settings: 100 mg/kg/d i.p.
Method: GALACTOSEMIC CATARACT IN RATS
The study was conducted using weaning male EOPS Wistar rats having an initial weight of between 45 and 50 g. The animals were fed a high vitamin and high protein regimen containing 20% by weight of galactose. The first signs of cataracts, detected by the ophthalmoscope, appeared beginning with the third day. The animals received daily i.p. doses of the test compound, the treatment being started four days after the commencement of the galactosemic regimen. The evolution of the cataract was followed by the detection of maroon rings visible in the ophthalmoscope. These rings appeared on the external edge of the lens and progressed little by little to its center. Anatomopathological studies of the lenses confirmed that these brown rings correspond well to the characteristic histological lesions of galactosemic cataracts. Photographs taken with the aid of a retinograph facilitated the comparison of the evolution of the lesions.
Statistical calculations according to the .chi.^2 method permit an evaluation of the significance of the results obtained for each of the treatments compared to those for non-treated animals.

capillary permeability = assay: Capillaroprotecting effects: capillary permeability; assay type: in vivo, conventional male Wistar rats
Method: (§1) Capillaroprotecting effects
The capillary permeability was determined by the method of Charlier et al, Arch. Inter. Physiol.

capillary resistance = assay: Capillaroprotecting effects: capillary resistance; assay type: in vivo, male OFA EOPS rats
Method: as §1
The capillary resistance was determined by a variant of the method of Charlier et al, Arch. Inter. Physiol.

carragenin edema = assay: Anti-inflammatory activity: carragenin edema test; assay type: in vivo; settings: for % inhibition of carragenin edema: borate buffer pH 7, 24 h; for inhibition in vivo at 100 mg/kg / inhibition in vivo at 200 mg/kg / inhibition in vivo at 300 mg/kg / inhibition in vivo at 75 mg/kg / inhibition in vivo at 150 mg/kg: Rattus norvegicus, ip
Procedure, shortened: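 Male Wistar EOPS rats receive 0.1 ml of 5% carragenin suspension in physiological serum into the hind-paw metatarsal muscle, with test substance given i.p. in neutralized solution at the same time. Paw edema is measured by plethysmometry at several times after carragenin and reported as % inhibition against pH-matched physiological serum controls.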

Wistar EOPS rat = assay: Minimum lethal dose by slow i.v. perfusion in the rat; assay type: in vivo
Method: The minimum lethal dose of compound No. 1 administered by slow i.v. perfusion in the Wistar EOPS rat is in the neighborhood of 15 mg/kg/min. for 30 min.

Solubilities in water = assay type: physicochemical; settings: water; read-out: Solubilities in water
Aldose Reductase = biological target: T1, Aldose Reductase (Bos taurus, UniProt P16116); assay: Inhibition of aldose reductase in vitro (enzyme from beef eye lenses, glyceraldehyde substrate); assay type: biochemical; settings: in DMF solution, read-out: percentages of inhibition (aldose reductase)
T1 construct: The enzyme is extracted from beef eye lenses; from tissue; host or cells: beef eye lenses
Excerpt: Inhibition of Aldose Reductase In Vitro
The reoxidation of NADPH coupled to the enzymatic reaction was followed spectrophotometrically at 340 nm.

SMILES: C[C@@H]1O[C@@H](OC[C@H]2O[C@@H](Oc3c(-c4ccc(O)c(O)c4)oc4cc(O)cc(O)c4c3=O)[C@H](O)[C@@H](O)[C@@H]2O)[C@@H]2OC(C)(C)O[C@@H]2[C@H]1O [No. 1, 3-O-(2,3-O,O-isopropylidene-6-α-L-rhamnosyl-β-D-glucosyl)-quercetin]
- percentage of animals which have not yet shown the appearance of cataracts (galactosemic cataract; day 0): 100%
- percentage of animals which have not yet shown the appearance of cataracts (galactosemic cataract; day 1): 100%
- percentage of animals which have not yet shown the appearance of cataracts (galactosemic cataract; day 2): 87.5%
- percentage of animals which have not yet shown the appearance of cataracts (galactosemic cataract; day 3): 81%
- percentage of animals which have not yet shown the appearance of cataracts (galactosemic cataract; day 4): 50%
- significance compared to non-treated animals (chi^2) (galactosemic cataract; day 4): S
- percentage of animals which have not yet shown the appearance of cataracts (galactosemic cataract; day 5): 37.5%
- significance compared to non-treated animals (chi^2) (galactosemic cataract; day 5): S
- percentage of animals which have not yet shown the appearance of cataracts (galactosemic cataract; day 6): 37.5%
- significance compared to non-treated animals (chi^2) (galactosemic cataract; day 6): S
- percentage of animals which have not yet shown the appearance of cataracts (galactosemic cataract; day 10): 37.5%
- significance compared to non-treated animals (chi^2) (galactosemic cataract; day 10): S
- percentage of animals which have not yet shown the appearance of cataracts (galactosemic cataract; day 12): 28%
- significance compared to non-treated animals (chi^2) (galactosemic cataract; day 12): S
- percentage of animals which have not yet shown the appearance of cataracts (galactosemic cataract; day 16): 19%
- significance compared to non-treated animals (chi^2) (galactosemic cataract; day 16): S
- percentage of animals which have not yet shown the appearance of cataracts (galactosemic cataract; day -4): 100%
- percentage reduction of capillary permeability (capillary permeability; 400 mg/kg i.p.): 30%
- percentage reduction of capillary permeability (capillary permeability; 800 mg/kg i.p.): 37%
- % of animals for which the effect is ≥ 25 u cm Hg/h (capillary resistance; 100 mg/kg i.p.): 50%
- capillary resistance, effect observed (capillary resistance; 100 mg/kg i.p.): 21.5 ± 4.6 u cm Hg/h
- % of animals for which the effect is ≥ 25 u cm Hg/h (capillary resistance; 200 mg/kg i.p.): 90%
- capillary resistance, effect observed (capillary resistance; 200 mg/kg i.p.): 41.25 ± 15.3 u cm Hg/h
- % inhibition of carragenin edema (carragenin edema; 75 mg/kg i.p.): 5%
- % inhibition of carragenin edema (carragenin edema; 150 mg/kg i.p.): 21%
- % inhibition of carragenin edema (carragenin edema; 200 mg/kg i.p.): 0%
- inhibition in vivo at 100 mg/kg (carragenin edema; 100 mg/kg i.p., physiological serum, 1/2 h, read-out: % inhibition of carragenin edema): 33%
- inhibition in vivo at 200 mg/kg (carragenin edema; 200 mg/kg i.p., physiological serum, 1/2 h, read-out: % inhibition of carragenin edema): 0%
- inhibition in vivo at 300 mg/kg (carragenin edema; 300 mg/kg i.p., physiological serum, 1/2 h, read-out: % inhibition of carragenin edema): 30%
- inhibition in vivo at 75 mg/kg (carragenin edema; 1 h, pH 7, read-out: % inhibition of carragenin edema, 75 mg/kg i.p., borate buffer pH 7, 1 h): 18%
- inhibition in vivo at 75 mg/kg (carragenin edema; 1 h, pH 7, read-out: % inhibition of carragenin edema, 75 mg/kg i.p., borate buffer pH 7, 1 h 1/2): 29%
- inhibition in vivo at 150 mg/kg (carragenin edema; 1 h, pH 7, read-out: % inhibition of carragenin edema, 150 mg/kg i.p., borate buffer pH 7, 1 h): 25%
- inhibition in vivo at 150 mg/kg (carragenin edema; 1 h, pH 7, read-out: % inhibition of carragenin edema, 150 mg/kg i.p., borate buffer pH 7, 1 h 1/2): 40%
- inhibition in vivo at 200 mg/kg (carragenin edema; 1 h, pH 7, read-out: % inhibition of carragenin edema, 200 mg/kg i.p., borate buffer pH 7, 1 h): 16%
- inhibition in vivo at 200 mg/kg (carragenin edema; 1 h, pH 7, read-out: % inhibition of carragenin edema, 200 mg/kg i.p., borate buffer pH 7, 1 h 1/2): 37%
- inhibition in vivo at 100 mg/kg (carragenin edema; 1 h, read-out: % inhibition of carragenin edema, 100 mg/kg i.p., physiological serum, 1 h): 24%
- inhibition in vivo at 200 mg/kg (carragenin edema; 1 h, read-out: % inhibition of carragenin edema, 200 mg/kg i.p., physiological serum, 1 h): 0%
- inhibition in vivo at 300 mg/kg (carragenin edema; 1 h, read-out: % inhibition of carragenin edema, 300 mg/kg i.p., physiological serum, 1 h): 37%
- inhibition in vivo at 75 mg/kg (carragenin edema; 2 h, pH 7, read-out: % inhibition of carragenin edema, 75 mg/kg i.p., borate buffer pH 7, 2 h): 23%
- inhibition in vivo at 150 mg/kg (carragenin edema; 2 h, pH 7, read-out: % inhibition of carragenin edema, 150 mg/kg i.p., borate buffer pH 7, 2 h): 34%
- inhibition in vivo at 200 mg/kg (carragenin edema; 2 h, pH 7, read-out: % inhibition of carragenin edema, 200 mg/kg i.p., borate buffer pH 7, 2 h): 38%
- inhibition in vivo at 100 mg/kg (carragenin edema; 2 h, read-out: % inhibition of carragenin edema, 100 mg/kg i.p., physiological serum, 2 h): 5%
- inhibition in vivo at 200 mg/kg (carragenin edema; 2 h, read-out: % inhibition of carragenin edema, 200 mg/kg i.p., physiological serum, 2 h): 8%
- inhibition in vivo at 300 mg/kg (carragenin edema; 2 h, read-out: % inhibition of carragenin edema, 300 mg/kg i.p., physiological serum, 2 h): 8%
- inhibition in vivo at 75 mg/kg (carragenin edema; 3 h, pH 7, read-out: % inhibition of carragenin edema, 75 mg/kg i.p., borate buffer pH 7, 3 h): 20%
- inhibition in vivo at 150 mg/kg (carragenin edema; 3 h, pH 7, read-out: % inhibition of carragenin edema, 150 mg/kg i.p., borate buffer pH 7, 3 h): 26%
- inhibition in vivo at 200 mg/kg (carragenin edema; 3 h, pH 7, read-out: % inhibition of carragenin edema, 200 mg/kg i.p., borate buffer pH 7, 3 h): 30%
- inhibition in vivo at 100 mg/kg (carragenin edema; 3 h, read-out: % inhibition of carragenin edema, 100 mg/kg i.p., physiological serum, 3 h): 7%
- inhibition in vivo at 200 mg/kg (carragenin edema; 3 h, read-out: % inhibition of carragenin edema, 200 mg/kg i.p., physiological serum, 3 h): 8%
- inhibition in vivo at 300 mg/kg (carragenin edema; 3 h, read-out: % inhibition of carragenin edema, 300 mg/kg i.p., physiological serum, 3 h): 16%
- inhibition in vivo at 75 mg/kg (carragenin edema; 4 h, pH 7, read-out: % inhibition of carragenin edema, 75 mg/kg i.p., borate buffer pH 7, 4 h): 14%
- inhibition in vivo at 150 mg/kg (carragenin edema; 4 h, pH 7, read-out: % inhibition of carragenin edema, 150 mg/kg i.p., borate buffer pH 7, 4 h): 19%
- inhibition in vivo at 200 mg/kg (carragenin edema; 4 h, pH 7, read-out: % inhibition of carragenin edema, 200 mg/kg i.p., borate buffer pH 7, 4 h): 21%
- inhibition in vivo at 100 mg/kg (carragenin edema; 4 h, read-out: % inhibition of carragenin edema, 100 mg/kg i.p., physiological serum, 4 h): 16%
- inhibition in vivo at 200 mg/kg (carragenin edema; 4 h, read-out: % inhibition of carragenin edema, 200 mg/kg i.p., physiological serum, 4 h): 12%
- inhibition in vivo at 300 mg/kg (carragenin edema; 4 h, read-out: % inhibition of carragenin edema, 300 mg/kg i.p., physiological serum, 4 h): 27%
- inhibition in vivo at 75 mg/kg (carragenin edema; 5 h, pH 7, read-out: % inhibition of carragenin edema, 75 mg/kg i.p., borate buffer pH 7, 5 h): 25%
- inhibition in vivo at 150 mg/kg (carragenin edema; 5 h, pH 7, read-out: % inhibition of carragenin edema, 150 mg/kg i.p., borate buffer pH 7, 5 h): 27%
- inhibition in vivo at 200 mg/kg (carragenin edema; 5 h, pH 7, read-out: % inhibition of carragenin edema, 200 mg/kg i.p., borate buffer pH 7, 5 h): 30%
- inhibition in vivo at 100 mg/kg (carragenin edema; 5 h, read-out: % inhibition of carragenin edema, 100 mg/kg i.p., physiological serum, 5 h): 20%
- inhibition in vivo at 200 mg/kg (carragenin edema; 5 h, read-out: % inhibition of carragenin edema, 200 mg/kg i.p., physiological serum, 5 h): 15%
- inhibition in vivo at 300 mg/kg (carragenin edema; 5 h, read-out: % inhibition of carragenin edema, 300 mg/kg i.p., physiological serum, 5 h): 30%
- inhibition in vivo at 75 mg/kg (carragenin edema; 6 h, pH 7, read-out: % inhibition of carragenin edema, 75 mg/kg i.p., borate buffer pH 7, 6 h): 17%
- inhibition in vivo at 150 mg/kg (carragenin edema; 6 h, pH 7, read-out: % inhibition of carragenin edema, 150 mg/kg i.p., borate buffer pH 7, 6 h): 28%
- inhibition in vivo at 200 mg/kg (carragenin edema; 6 h, pH 7, read-out: % inhibition of carragenin edema, 200 mg/kg i.p., borate buffer pH 7, 6 h): 18%
- inhibition in vivo at 100 mg/kg (carragenin edema; 6 h, read-out: % inhibition of carragenin edema, 100 mg/kg i.p., physiological serum, 6 h): 7%
- inhibition in vivo at 200 mg/kg (carragenin edema; 6 h, read-out: % inhibition of carragenin edema, 200 mg/kg i.p., physiological serum, 6 h): 9%
- inhibition in vivo at 300 mg/kg (carragenin edema; 6 h, read-out: % inhibition of carragenin edema, 300 mg/kg i.p., physiological serum, 6 h): 27%
- inhibition in vivo at 75 mg/kg (carragenin edema; read-out: % inhibition of carragenin edema, 75 mg/kg i.p., borate buffer pH 7, 1/2 h): 18%
- inhibition in vivo at 150 mg/kg (carragenin edema; read-out: % inhibition of carragenin edema, 150 mg/kg i.p., borate buffer pH 7, 1/2 h): 15%
- inhibition in vivo at 200 mg/kg (carragenin edema; read-out: % inhibition of carragenin edema, 200 mg/kg i.p., borate buffer pH 7, 1/2 h): 9%
- arterial pressure and cardiac frequency, time of maximum (Wistar EOPS rat): attain their maximum values at the twelfth minute of the perfusion
- cause of death (Wistar EOPS rat): death occurs by respiratory arrest
- hemodynamic effects (Wistar EOPS rat): brief, low intensity hypotension is observed accompanied by bradycardia
- minimum lethal dose (Wistar EOPS rat; for 30 min): ~15 mg/kg/min
- solubility (Solubilities in water): 7000 µg/mL (≈ 10.8 mM)
- inhibition at 100 µM (Aldose Reductase; 10^-4 mole/l): 82%
- inhibition at 10 µM (Aldose Reductase; 10^-5 mole/l): 32%

From US4211772A, “Benzopyran glycoside acetals and ketals” (Laboratoires Sarget, priority 1977, dated 1980)
